Reference: patent publication US20130217721A1, “COMPOSITIONS AND METHODS FOR DETECTION AND TREATMENT OF B-RAF INHIBITOR-RESISTANT MELANOMAS” (The Regents of the University of California, priority 2010, published 2013)
Blank lines part the entries; values can stand above or below the molecule they belong to.

Key:
[1] = test system: M229 R sub-lines (M229 R5); experiment: Cell survival / proliferation assay (72 h); assay type: cell-based, human; conditions: M229 R5, 72 h, PLX4032-resistant cells grown with PLX4032
Method: (§1) Cells were maintained in Dulbecco's modified Eagle medium (DMEM) with 10 or 20% fetal bovine serum and glutamine. shRNAs were sub-cloned into the lentiviral vector pLL3.7 and infections carried out with protamine sulphate. Stocks of PLX4032 (Plexxikon) and AZD6244 (commercially available) were made in DMSO. Cells were quantified using CellTiter-GLO Luminescence (Promega).
(§2) Cell proliferation experiments were performed in a 96-well format (five replicates), and baseline quantification performed at 24 h after cell seeding along with initiation of drug treatments (72 h). Stocks and dilutions of PLX4032 (Plexxikon), AZD6244 (Selleck Chemicals) and U0126 (Promega) were made in DMSO. siRNA pool (Dharmacon) transfections were carried out in 384-well format. TransIT transfection reagent (Mirus) was added to each well and incubated at 37° C. for 20 min. Subsequently, cells were reverse transfected, and the mixture was incubated for 51-61 h at 37° C. Cells were quantified using CellTiter 96 Aqueous One Solution (Promega) or CellTiter-GLO Luminescence (Promega) following the manufacturer's recommendations.

[2] = test system: M238 R sub-lines (M238 R1); experiment: Cell survival / proliferation assay (72 h); assay type: cell-based, human; conditions: M238 R1, 72 h, PLX4032-resistant cells grown with PLX4032
Method: as §1, §2

[3] = test system: Pt48 R short-term culture; experiment: Cell survival / proliferation assay (72 h); assay type: cell-based, human; conditions: for growth sensitivity to inhibitor: 72 h, PLX4032-resistant cells grown with PLX4032
Method: as §1, §2

[4] = test system: Pt55 R short-term culture; experiment: Cell survival / proliferation assay (72 h); assay type: cell-based, human; conditions: for growth sensitivity to MEK inhibition: 72 h, in the presence or absence of PLX4032
Method: as §1, §2

[5] = test system: M249 R sub-line (M249 R4); experiment: Cell survival / proliferation assay (72 h); assay type: cell-based, human; conditions: for growth sensitivity to MEK inhibition: M249 R4, 72 h, in the presence or absence of PLX4032
Method: as §1, §2
(§3) Cell culture, infections and drug treatments. Cells were maintained in DMEM with 10 or 20% fetal bovine serum and glutamine. shRNAs for B-RAF and C-RAF were sub-cloned into the lentiviral vector pLL3.7; pBabe B-RAF (V600E) was purchase (plasmid 17544, Addgene); viral supernatants generated by co-transfection with three packaging plasm ids into HEK293T cells; and infections carried out with protamine sulfate. Stocks and dilutions of PLX4032 (Plexxikon, Berkeley, Calif.) and AZD6244 (commercially available) were made in DMSO. Cells were quantified using CellTiter-GLO Luminescence (Promega) or crystal violet staining followed by NIH Image J quantification.

M395 R = experiment: Cell survival assay (72 h); assay type: cell-based, human; conditions: M395 R (V600EB-RAF amplification-driven), 72 h
Excerpt: as §3

[6] = test system: SKMEL-239 PLX4032-resistant clones C1-5; experiment: Proliferation assay of PLX4032-resistant clones; assay type: cell-based, human; conditions: all five resistant clones, albeit at slightly higher doses
Method: Cell proliferation and cell cycle analysis. All melanoma cell lines were generated by A. Houghton (MSKCC) or obtained from ATCC. 293H cells were obtained from Invitrogen. Cells were maintained in DMEM (293H and MEFs), or RPMI (all other cell lines) supplemented with 2 mM glutamine, antibiotics and 10% fetal bovine serum. We confirmed by DNA fingerprinting^20 that all PLX4032-resistant, SKMEL-239 clones were derived from the same patient, thus excluding the possibility of contamination (Table 6). For proliferation assays, cells were plated in 6 well plates and 24 hours later were treated with varying concentrations of inhibitors as indicated. IC50 values were calculated using Graph Pad Prism v.5. For cell cycle and apoptosis studies, cells were seeded in 6 well dishes the day prior to drug treatment. For analysis, both adherent and floating cells were harvested and stained with ethidium bromide as described previously^21.

[7] = molecular target: T1, V5-tagged p61 BRAF(V600E/R509H) (human, UniProt P15056 1-766); experiment: co-immunoprecipitation of FLAG- and V5-tagged forms from 293H cells
T1 construct: domain: splice variant lacking exons 4-8 (554 amino acids); Co-expressed with the FLAG-tagged form in 293H cells; also called dimerization mutant p61 BRAF(V600E/R509H); not shown: V5 tag

Molecule: Cn1cnc2c(F)c(Nc3ccc(Br)cc3Cl)c(C(=O)NOCCO)cc21 [AZD6244]
growth sensitivity to inhibitor [1]: highly resistant | growth sensitivity to inhibitor [2]: highly resistant | growth sensitivity to inhibitor [3]: highly resistant | growth sensitivity to MEK inhibition [4]: sensitive | proliferation under MEKi treatment ([5]; M249 R4 (Q61KN-RAS-driven), 72 h): decreased proliferation | growth sensitivity to MEK inhibition [5]: sensitive | proliferation under MEKi treatment (M395 R): decreased proliferation

Molecule: O=C(NOC[C@H](O)CO)c1ccc(F)c(F)c1Nc1ccc(I)cc1F [PD0325901]
sensitivity to the MEK inhibitor [6]: retained sensitivity

Molecule: CCCS(=O)(=O)Nc1ccc(F)c(C(=O)c2c[nH]c3ncc(Cl)cc23)c1F [PLX4720]
growth resistance to B-RAF inhibitor [3]: resistance | growth resistance to B-RAF inhibitor [4]: resistance

Molecule: N#CC(=C(/N)Sc1ccccc1N)/C(C#N)=C(\N)Sc1ccccc1N [U0126]
growth sensitivity to inhibitor [1]: highly resistant | growth sensitivity to inhibitor [2]: highly resistant | growth sensitivity to inhibitor [3]: highly resistant | growth sensitivity to MEK inhibition [4]: sensitive | growth sensitivity to MEK inhibition [5]: sensitive

binding result [7]: no binding
B1: FLAG-tagged p61 BRAF(V600E/R509H) (enzyme, human, UniProt P15056 1-766, looked up)
chain: MAALSGGGGGGAEPGQALFNGDMEPEAGAGAGAAASSAADPAIPEEVWNIKQMIKLTQEHIEALLDKFGGEHNPPSIYLEAYEEYTSKLDALQQREQQLLESLGNGTDFSVSSSASMDTVTSSSSSSLSVLPSSLSVFQNPTDVARSNPKSPQKPIVRVFLPNKQRTVDLIRDQGFRGDGGSTTGLSATPPASLPGSLTNVKALQKSPGPQRERKSSSSSEDRNRMKTLGRRDSSDDWEIPDGQITVGQRIGSGSFGTVYKGKWHGDVAVKMLNVTAPTPQQLQAFKNEVGVLRKTHHVNILLFMGYSTKPQLAIVTQWCEGSSLYHHLHIIETKFEMIKLIDIARQTAQGMDYLHAKSIIHRDLKSNNIFLHEDLTVKIGDFGLATEKSRWSGSHQFEQLSGSILWMAPEVIRMQDKNPYSFQSDVYAFGIVLYELMTGQLPYSNINNRDQIIFMVGRGYLSPDLSKVRSNCPKAMKRLMAECLKKKRDERPLFPQILASIELLARSLPKIHRSASEPSLNRAGFQTEDFSLYACASPKTPIQAGGYGAFPVH
notes: domain: splice variant lacking exons 4-8 (554 amino acids); Expressed in 293H cells; immunoprecipitated with FLAG antibody; also called dimerization-deficient mutant; not shown: FLAG tag
